One experiment has as its system TE-1. Briefly: Antiproliferative activity against human TE-1 cells assessed as inhibition of cell growth incubated for 72 hrs by SRB assay. It is filed as functional, cell-based. As to conditions: TE-1, 72 h.
Another experiment relates to MGC-803. Briefly: Antiproliferative activity against human MGC-803 cells assessed as inhibition of cell growth incubated for 72 hrs by SRB assay. It counts as functional, cell-based. The note with it: MGC-803, 72 h.
Another experiment concerns MCF7. The experiment can be described thus: Antiproliferative activity against human MCF7 cells assessed as inhibition of cell growth incubated for 72 hrs by SRB assay. It counts as functional, cell-based. The note with it: MCF7, 72 h.
Experiment [1] deals with ECa-109 cell line. The experiment can be described thus: Antiproliferative activity against human EC109 cells assessed as inhibition of cell growth incubated for 72 hrs by SRB assay. It counts as functional, cell-based. The note with it: ECa-109, 72 h. (The SRB assay estimates cell density from bound dye.)
Experiment [2] concerns ECa-109 cell line. The experiment can be described thus: Induction of mitochondrial depolarization in human EC-109 cells assessed as depolarized cell population at 5 mM measured after 24 hrs by JC1 dye based flow cytometry (reference value: 4.2 %). It counts as functional.
Experiment [3] concerns ECa-109 cell line. Briefly: Induction of apoptosis in human EC109 cells assessed as increase in intracellular ROS level at 5 mM incubated for 24 hrs by DCFH-DA staining based flow cytometry analysis (reference value: 0.6 %). It counts as functional. (A flow cytometer gives signals particle by particle.)
Experiment [4] has as its system ECa-109 cell line. The experiment can be described thus: Induction of apoptosis in human EC-109 cells assessed as apoptotic rate at 5 mM after 48 hrs by Annexin V-FITC/propidium iodide staining based flow cytometry (reference value: 3.8 %). It is filed as functional.
Experiment [5] concerns ECa-109 cell line. The experiment can be described thus: Induction of apoptosis in human EC-109 cells assessed as apoptotic rate at 5 mM after 24 hrs by Annexin V-FITC/propidium iodide staining based flow cytometry (reference value: 5.7 %). It is filed as functional.

The term pIC50 denotes the IC50 on a negative log10 scale, so that one unit is a factor of ten.

pIC50: −log10 of the molar value.

Take `C=C1C(=O)[C@@]23[C@H](O)C[C@@H]4C(C)(C)CCC[C@@]4(COC(C)=O)[C@@H]2[C@@H](O)C[C@H]1[C@H]3OC(=O)c1cccc(OC)c1`: the pIC50 in the experiment on TE-1 is 6.38; in the experiment on MGC-803, 6.34; with MCF7 it was 6.60; in the experiment on ECa-109 cell line [1] it was 6.36.
For `C=C1C(=O)[C@@]23[C@H](O)C[C@@H]4C(C)(C)CCC[C@@]4(COC(C)=O)[C@@H]2[C@@H](O)C[C@H]1[C@H]3OC(=O)c1ccc(OC)c(OC)c1`, the pIC50 was 6.47 in the experiment on TE-1, 6.24 in the experiment with MGC-803, 6.85 in the experiment with MCF7 and 6.57 in the experiment with ECa-109 cell line [1].
As to `C=C1C(=O)[C@@]23[C@H](O)C[C@@H]4C(C)(C)CCC[C@@]4(COC(C)=O)[C@@H]2[C@@H](O)C[C@H]1[C@H]3OC(=O)c1cccc(Br)c1`, the pIC50 with TE-1 was 6.80; in the experiment on MGC-803 it was 6.38; with MCF7, 6.42; with ECa-109 cell line [1], 6.62.
The like results for `C=C1C(=O)[C@@]23[C@H](O)C[C@@H]4C(C)(C)CCC[C@@]4(COC(C)=O)[C@@H]2[C@@H](O)C[C@H]1[C@H]3OC(=O)c1cc(Cl)ccc1OC` were, in that order, 6.34, 6.18, 6.32 and 6.25.
The like results for `C=C1C(=O)[C@@]23[C@H](O)C[C@@H]4C(C)(C)CCC[C@@]4(COC(C)=O)[C@@H]2[C@@H](O)C[C@H]1[C@H]3OC(=O)c1ccc(C)cc1` were, in that order, 6.52, 6.32, 6.62 and 6.52.
The like results for `C=C1C(=O)[C@@]23[C@H](O)C[C@@H]4C(C)(C)CCC[C@@]4(COC(C)=O)[C@@H]2[C@@H](O)C[C@H]1[C@H]3OC(=O)c1ccccc1C` were, in that order, 6.35, 6.20, 6.41 and 6.33.
With `C=C1C(=O)[C@@]23[C@H](O)C[C@@H]4C(C)(C)CCC[C@@]4(COC(C)=O)[C@@H]2[C@@H](O)C[C@H]1[C@H]3O`, the negative logarithm of the IC50 (pIC50) in the experiment with TE-1 is 5.17; in the experiment with MGC-803 it was 5.06; in the experiment on MCF7, 5.17; with ECa-109 cell line [1] it was 5.28.
Consider `C=C1C(=O)[C@]23[C@H](O)[C@H]1CC[C@H]2[C@@]12CO[C@]3(O)[C@@H](O)[C@@H]1C(C)(C)CC[C@@H]2O` [ORIDONIN], for which the pIC50 in the experiment with ECa-109 cell line [1] was 4.66.
For the compound `C=C1C(=O)[C@@]23[C@H](O)C[C@@H]4C(C)(C)CCC[C@@]4(COC(C)=O)[C@@H]2[C@@H](O)C[C@H]1[C@H]3OC(=O)c1ccc(Cl)cc1Cl`, the pIC50 in the experiment on TE-1 is 5.91; in the experiment on MGC-803, 5.94; in the experiment on MCF7 it was 5.93; with ECa-109 cell line [1] it was 5.37.
The like results for `C=C1C(=O)[C@@]23[C@H](O)C[C@@H]4C(C)(C)CCC[C@@]4(COC(C)=O)[C@@H]2[C@@H](O)C[C@H]1[C@H]3OC(=O)CCCBr` were, in that order, 6.33, 6.60, 6.33 and 6.12.
The like results for `C=C1C(=O)[C@@]23[C@H](O)C[C@@H]4C(C)(C)CCC[C@@]4(COC(C)=O)[C@@H]2[C@@H](O)C[C@H]1[C@H]3OC(=O)c1ccc(Cl)cc1` were, in that order, 6.42, 6.55, 6.57 and 6.48.
`C=C1C(=O)[C@@]23[C@H](O)C[C@@H]4C(C)(C)CCC[C@@]4(COC(C)=O)[C@@H]2[C@@H](O)C[C@H]1[C@H]3OC(=O)c1ccccc1`: the pIC50 in the experiment with TE-1 was 6.48; in the experiment with MGC-803 it was 6.33; in the experiment with MCF7 it was 6.70; in the experiment with ECa-109 cell line [1], 6.51.
As to `CC(=O)N[C@@H](CS)C(=O)O` [ACETYLCYSTEINE], the Activity with ECa-109 cell line [2] is listed as 4.8%; in the experiment with ECa-109 cell line [3] it was 0.2%; in the experiment with ECa-109 cell line [4], 4.5%; in the experiment with ECa-109 cell line [5] it was 6.4%.
For the compound `C=C1C(=O)[C@@]23[C@H](O)C[C@@H]4C(C)(C)CCC[C@@]4(COC(C)=O)[C@@H]2[C@@H](O)C[C@H]1[C@H]3OC(=O)c1ccc(Br)cc1`, the negative logarithm of the IC50 (pIC50) with TE-1 is 6.41; with MGC-803, 6.21; in the experiment on MCF7, 6.48; in the experiment on ECa-109 cell line [1], 6.42.
Take `C=C1C(=O)[C@@]23[C@H](O)C[C@@H]4C(C)(C)CCC[C@@]4(COC(C)=O)[C@@H]2[C@@H](O)C[C@H]1[C@H]3OC(=O)c1ccc(OC)cc1`: the negative-log IC50 (pIC50) in the experiment with TE-1 is 6.60; in the experiment with MGC-803, 6.34; in the experiment on MCF7 it was 6.64; with ECa-109 cell line [1], 6.54.
In the case of `C=C1C(=O)[C@@]23[C@H](O)C[C@@H]4C(C)(C)CCC[C@@]4(COC(C)=O)[C@@H]2[C@@H](O)C[C@H]1[C@H]3OC(=O)c1cccc(C(F)(F)F)c1`, the pIC50 in the experiment on TE-1 was 6.43; with MGC-803, 5.94; with MCF7 it was 6.54; in the experiment on ECa-109 cell line [1] it was 6.48.
The like results for `C=C1C(=O)[C@@]23[C@H](O)C[C@@H]4C(C)(C)CCC[C@@]4(COC(C)=O)[C@@H]2[C@@H](O)C[C@H]1[C@H]3OC(=O)c1ccccc1C(F)(F)F` were, in that order, 6.49, 6.10, 6.40 and 6.38.
In the case of `C=C1C(=O)[C@@]23[C@H](O)C[C@@H]4C(C)(C)CCC[C@@]4(COC(C)=O)[C@@H]2[C@@H](O)C[C@H]1[C@H]3OC(=O)c1cccc(Cl)c1`, the pIC50 with TE-1 was 6.39; with MGC-803, 6.39; in the experiment on MCF7 it was 6.44; in the experiment with ECa-109 cell line [1], 6.40.
Turning to `C=C1C(=O)[C@@]23[C@H](O)C[C@@H]4C(C)(C)CCC[C@@]4(COC(C)=O)[C@@H]2[C@@H](O)C[C@H]1[C@H]3OC(=O)c1ccccc1Cl`, the pIC50 is 6.35 in the experiment with TE-1, 6.15 in the experiment with MGC-803, 6.39 in the experiment on MCF7 and 6.39 with ECa-109 cell line [1].
For `C=C1C(=O)[C@@]23[C@H](O)C[C@@H]4C(C)(C)CCC[C@@]4(COC(C)=O)[C@@H]2[C@@H](O)C[C@H]1[C@H]3OC(=O)CCc1ccccc1`, the pIC50 in the experiment with TE-1 was 6.14; in the experiment on MGC-803, 5.89; in the experiment with MCF7 it was 6.22; with ECa-109 cell line [1], 6.17.
The like results for `C=C1C(=O)[C@@]23[C@H](O)C[C@@H]4C(C)(C)CCC[C@@]4(COC(C)=O)[C@@H]2[C@@H](O)C[C@H]1[C@H]3OC(=O)c1ccccc1F` were, in that order, 5.44, 5.64, 5.76 and 5.79.
The like results for `C=C1C(=O)[C@@]23[C@H](O)C[C@@H]4C(C)(C)CCC[C@@]4(COC(C)=O)[C@@H]2[C@@H](O)C[C@H]1[C@H]3OC(=O)c1cccc(Cl)c1Cl` were, in that order, 6.41, 6.16, 6.51 and 6.48.
`C=C1C(=O)[C@@]23[C@H](O)C[C@@H]4C(C)(C)CCC[C@@]4(COC(C)=O)[C@@H]2[C@@H](O)C[C@H]1[C@H]3OC(=O)c1ccc(CBr)cc1`: the pIC50 is 6.60 in the experiment with TE-1, 6.47 in the experiment with MGC-803, 6.85 with MCF7 and 6.77 in the experiment on ECa-109 cell line [1].
The like results for `C=C1C(=O)[C@@]23[C@H](O)C[C@@H]4C(C)(C)CCC[C@@]4(COC(C)=O)[C@@H]2[C@@H](O)C[C@H]1[C@H]3OC(=O)c1ccc(F)cc1` were, in that order, 4.70, 6.04, 5.87 and 5.07.
For `C=C1C(=O)[C@@]23[C@H](O)C[C@@H]4C(C)(C)CCC[C@@]4(COC(C)=O)[C@@H]2[C@@H](O)C[C@H]1[C@H]3OC(=O)c1cccc(C)c1`, the pIC50 is 6.49 in the experiment on TE-1, 6.51 with MGC-803, 6.54 in the experiment on MCF7 and 6.43 in the experiment with ECa-109 cell line [1].
The like results for `C=C1C(=O)[C@@]23[C@H](O)C[C@@H]4C(C)(C)CCC[C@@]4(COC(C)=O)[C@@H]2[C@@H](O)C[C@H]1[C@H]3OC(=O)c1cccc(F)c1` were, in that order, 5.89, 5.63, 5.65 and 5.79.
As for `C=C1C(=O)[C@@]23[C@H](O)C[C@@H]4C(C)(C)CCC[C@@]4(COC(C)=O)[C@@H]2[C@@H](O)C[C@H]1[C@H]3OC(=O)c1ccccc1Br`, the pIC50 with TE-1 was 6.43; in the experiment on MGC-803, 6.28; in the experiment with MCF7, 6.34; in the experiment on ECa-109 cell line [1] it was 6.29.
The like results for `C=C1C(=O)[C@@]23[C@H](O)C[C@@H]4C(C)(C)CCC[C@@]4(COC(C)=O)[C@@H]2[C@@H](O)C[C@H]1[C@H]3OC(=O)c1ccc(C(F)(F)F)cc1` were, in that order, 6.38, 6.11, 6.46 and 6.42.

Values taken from ChEMBL document CHEMBL4706557, “Synthesis and in vitro and in vivo biological evaluation of novel derivatives of flexicaulin A as antiproliferative agents” (Eur J Med Chem, 2020).
